Assays:
[1] = test system: Aphis Fabae, Mixed Instar, Bean Aphid (BA); test: Bean aphid (BA) foliar spray test, mortality after 2 days; format: in vivo; conditions: rating scale
Protocol: (§1) Test solutions are prepared by dissolving the test compound in a 35% acetone in water mixture to give a concentration of 10,000 ppm. Subsequent dilutions are made with water as needed.
Aphis Fabae, Mixed Instar, Bean Aphid (BA)
(§2) Pots containing single nasturtium plants (Tropaeolum sp.) about 5 cm tall are infested with about 100-200 aphids one day before the test. Each pot is sprayed with the test solution for 2 revolutions of a 4 rpm turntable in a hood. The spray is directed to give complete coverage of the plants and aphids. The sprayed pots are set on their sides on white trays and held for 2 days, following which mortality estimates are made. Essentially the same method is used with respect to cotton aphid (CA).

[2] = test system: Spodoptera Eridania, 3rd Instar Larvae, Southern Armyworm (SAW); test: Southern armyworm (SAW) leaf-dip test, observations at 5 days; format: in vivo; conditions: Southern Army Worm, rating scale
Protocol: as §1
Spodoptera Eridania, 3rd Instar Larvae, Southern Armyworm (SAW)
A Sieva lima bean leaf expanded to 7-8 cm in length is dipped in the test solution with agitation for 3 seconds and allowed to dry in a hood. The leaf is then placed in a 100×10 mm petri dish containing a damp filter paper on the bottom and ten 3rd instar caterpillars. At 5 days, observations are made of mortality, reduced feeding, or any interference with normal molting.

[3] = test system: Tetranychus Urticae (OP-resistant strain), 2-spotted Spider Mite (TSM); test: Two-spotted spider mite (TSM) plant-dip test, mortality after 2 days; format: in vivo; conditions: rating scale
Protocol: as §1
Tetranychus Urticae (OP-resistant strain), 2-spotted Spider Mite (TSM)
Sieva lima bean plants with primary leaves expanded to 7-8 cm are selected and cut back to one plant per pot. A small piece is cut from an infested leaf taken from the main colony and placed on each leaf of the test plants. This is done about 2 hours before treatment to allow the mites to move over to the test plant to lay eggs. The size of the cut, infested leaf is varied to obtain about 100 mites per leaf. At the time of test treatment, the piece of leaf used to transfer the mites is removed and discarded. The newly-infested plants are dipped in the test solution for 3 seconds with agitation and set in the hood to dry. After 2 days, one leaf is removed and mortality counts are made.

[4] = test system: Diabrotica Virgifera Virgifera Leconte, 3rd Instar Western Corn Rootworm (WCR); test: Western corn rootworm (WCR) soil test, mortality at 5 days; format: in vivo; conditions: rating scale
Protocol: Diabrotica Virgifera Virgifera Leconte, 3rd Instar Western Corn Rootworm (WCR) One cc of fine talc is placed in a 30 mL wide-mouth screw-top glass jar. One mL of the appropriate acetone test solution is pipetted onto the talc so as to provide 1.25 mg of active ingredient per jar. The jars are set under a gentle air flow until the acetone is evaporated. The dried talc is loosened, 1 cc of millet seed is added to serve as food for the insects and 25 mL of moist soil is added to each jar. The jar is capped and the contents thoroughly mixed mechanically. Following this, ten 3rd instar rootworms are added to each jar and the jars are loosely capped to allow air exchange for the larvae. The treatments are held for 5 days when mortality counts are made. Missing larvae are presumed dead, since they decompose rapidly and can not be found. The concentrations of active ingredient used in this test correspond approximately to 50 kg/ha.

Cotton Aphid (CA) = test: Cotton aphid (CA) foliar spray test, essentially the bean aphid method; format: in vivo; conditions: rating scale
Protocol: as §1, §2

With `Fc1ccc(Oc2nccc(-c3ccc(OC(F)(F)F)cc3)n2)cc1Cl` [Compound 55] the “BA AD-FOLIAR 300 (ppm)” value [1] was “A (A 0-45% kill)”, the “SAW 2^ND-FOLIAR 1000 (ppm)” value [2] was “A (A 0-45% kill)” and the “TSM AD-FOLIAR 300 (ppm)” value [3] was “A (A 0-45% kill)”. The “WCR 2^ND-SOIL 50 (ppm)” value [4] was “C (C 76-100% kill)”.
In the case of `FC(F)(F)c1cc(-c2ccnc(Oc3ccccc3)n2)cc(Cl)c1Cl` [Compound 63], the “BA AD-FOLIAR 300 (ppm)” value [1] is reported as “A (A 0-45% kill)”, the “TSM AD-FOLIAR 300 (ppm)” value [3] is reported as “A (A 0-45% kill)” and the “CA-FOLIAR 300 (ppm)” value (Cotton Aphid (CA)) is reported as “C (C 76-100% kill)”.
For `Fc1cccc(Oc2nccc(-c3cc(Cl)c(Cl)c(C(F)(F)F)c3)n2)c1` [Compound 64], the “TSM AD-FOLIAR 300 (ppm)” value [3] was “A (A 0-45% kill)”, the “CA-FOLIAR 300 (ppm)” value (Cotton Aphid (CA)) was “A (A 0-45% kill)” and the “WCR 2^ND-SOIL 50 (ppm)” value [4] was “C (C 76-100% kill)”.
In the case of `Fc1ccc(Oc2nccc(-c3cccc(Cl)c3)n2)cc1C(F)(F)F` [Compound 66], the “TSM AD-FOLIAR 300 (ppm)” value [3] is reported as “A (A 0-45% kill)”, the “CA-FOLIAR 300 (ppm)” value (Cotton Aphid (CA)) is reported as “A (A 0-45% kill)” and the “WCR 2^ND-SOIL 50 (ppm)” value [4] is reported as “C (C 76-100% kill)”.
With `FC(F)(F)c1cccc(Oc2nccc(-c3cccc(Cl)c3)n2)c1` [Compound 67] the “TSM AD-FOLIAR 300 (ppm)” value [3] was “A (A 0-45% kill)” and the “CA-FOLIAR 300 (ppm)” value (Cotton Aphid (CA)) was “C (C 76-100% kill)”.
For `Fc1cccc(-c2ccnc(Oc3ccc(F)c(C(F)(F)F)c3)n2)c1` [Compound 68], the “TSM AD-FOLIAR 300 (ppm)” value [3] was “B (B 45-75% kill)” and the “CA-FOLIAR 300 (ppm)” value (Cotton Aphid (CA)) was “C (C 76-100% kill)”.
In the case of `Fc1ccc(-c2ccnc(Oc3cccc(C(F)(F)F)c3)n2)cc1C(F)(F)F` [Compound 71], the “BA AD-FOLIAR 300 (ppm)” value [1] is reported as “C (C 76-100% kill)”, the “TSM AD-FOLIAR 300 (ppm)” value [3] is reported as “A (A 0-45% kill)” and the “CA-FOLIAR 300 (ppm)” value (Cotton Aphid (CA)) is reported as “B (B 45-75% kill)”.
In the case of `Fc1cc(-c2ccnc(Oc3ccc(F)c(C(F)(F)F)c3)n2)ccc1Cl` [Compound 78], the “TSM AD-FOLIAR 300 (ppm)” value [3] is reported as “B (B 45-75% kill)” and the “CA-FOLIAR 300 (ppm)” value (Cotton Aphid (CA)) is reported as “B (B 45-75% kill)”.
Molecule `Fc1ccc(Oc2ncc(Cl)c(-c3ccc(Cl)c(Cl)c3)n2)cc1C(F)(F)F` [Compound 93, 2-(3-Trifluoromethyl-4-fluorophenoxy)-4-(3,4-dichlorophenyl)-5-chloropyrimidine] has a melting point of 90 to 92 °C.
With `CCc1cnc(Oc2cccc(C(F)(F)F)c2)nc1-c1cccc(C(F)(F)F)c1` [Compound 157] the pest or weed control at 300 ppm ([1]; Aphis fabae, 48 h, read-out: BA AD-FOLIAR 300 (ppm)) was 45 to 75%, the pest or weed control at 1000 ppm ([2]; Spodoptera eridania, foliar, 120 h, read-out: SAW 2^ND-FOLIAR 1000 (ppm)) was 0 to 45% and the pest or weed control at 300 ppm ([3]; Tetranychus urticae, 48 h, read-out: TSM AD-FOLIAR 300 (ppm)) was 45 to 75%. For the same molecule, the pest or weed control at 50 ppm ([4]; Diabrotica virgifera, 120 h, read-out: WCR 2^ND-SOIL 50 (ppm)) was 76 to 100%.

— patent US6440984B1, “Use of aryl-substituted pyrimidines as insecticidal and acaricidal agents” (BASF Aktiengesellschaft, priority 1998, dated 2002)
